# Measured values: publication PMC8587047, “Synthesis and Biological Evaluation of Harmirins, Novel Harmine–Coumarin Hybrids as Potential Anticancer Agents” (Molecules, 2021)
# Entries after “also recorded” stand apart in the source; their conditions may differ.
# How the values were obtained:
# HepG2 = experiment: MTT cytotoxicity assay, HepG2; assay type: cell-based; settings: Homo sapiens, HepG2; MTT, 72 h, mean ± SD; read-out: IC50 HepG2
# Text: (§1) We selected four different cancer cell lines for antiproliferative screening in vitro, which we believed would provide sufficient data on the anticancer potential of the prepared harmirins (hepatocellular carcinoma—HepG2, colorectal adenocarcinoma, Dukes’ type C—SW620, colorectal carcinoma—HCT116, and breast adenocarcinoma—MCF-7). Additionally, we included one non-cancer cell line (embryonic kidney—HEK293T) to evaluate harmirins’ selectivity. The commonly used anticancer drug 5-FU and harmine were used as positive controls. Pre-screening was performed using 50 µM of the tested compound. Only compounds that led to more than 50% reduction in mitochondrial metabolic activity at 50 µM concentration were selected for further analysis. The selectivity index (SI) for each harmirin was calculated as a fractional ratio between the IC50 values for HEK293T and the cancer cell line MCF-7 or HCT116 since these two cell lines were the most susceptible to harmirins.
# (§2) The experiments were carried out on five human cell lines purchased from American Type Culture Collection (ATCC, PO BOX 1549, manassas, VA 20108, USA): HepG2 (hepatocellular carcinoma; ATCC® HB-8065™), SW620 (colorectal adenocarcinoma; ATCC® CCL-227™), HCT116 (colorectal carcinoma ATCC® CCL-247™), MCF-7 (breast adenocarcinoma, ATCC® HTB-22™), and HEK293T (embryonic kidney cells; ATCC® CRL-3216™). All cell lines were cultured as monolayers and maintained in Dulbecco’s modified Eagle medium (DMEM) (Capricorn Scientific, USA), supplemented with 10% fetal bovine serum (FBS) (Capricorn Scientific, USA), 100 U/mL penicillin, and 100 µg/mL streptomycin (Capricorn Scientific, USA) in a humidified atmosphere with 5% CO2 at 37 °C. Cells were seeded in 96-well plates (Corning, Durham, NC, USA) at 5000–7000 cells per well (depending on the cell doubling time of a specific cell line) in 0.1 mL media and cultured for 24 h. The next day, the medium was aspirated, and cells were treated for 72 h. Only the compounds that led to more than a 50% reduction in mitochondrial metabolic activity at a concentration of 50 µM were selected for further analysis. The following concentrations of selected compounds were used: 25, 10, 5, and 1 µM. Working dilutions were freshly prepared on the day of the testing. A fresh growth medium was added to untreated control cells, which were defined as 100% viable. DMSO (0.13%) in DMEM was considered a negative control. 5-Fluorouracil (5-FU) and harmine were used as positive controls. At the end of treatment, media was removed, and cells were incubated for 1 h with 0.5 mg/mL MTT (Abcam, Cambridge, MA, USA) dissolved in serum-deprived DMEM. The absorbance was directly proportional to cell viability. The MTT-containing media was then removed, and 0.1 mL isopropanol was added per well to lyse cells and dissolve formazan. The optical density was measured at 570 nm using a microplate reader (VICTOR3, PerkinElmer). Each test point was performed in triplicate. The IC50 values (concentration required to decrease viability by 50%) were calculated by using nonlinear regression on the sigmoidal dose–response plots and are expressed as mean ± SD.
# SW620 = experiment: MTT cytotoxicity assay, SW620; assay type: cell-based; settings: Homo sapiens, SW-620; MTT, 72 h, mean ± SD; read-out: IC50 SW620
# Text: as §1, §2
# HCT116 = experiment: MTT cytotoxicity assay, HCT116; assay type: cell-based, human
# Text: as §1, §2
# MCF-7 = experiment: MTT cytotoxicity assay, MCF-7; assay type: cell-based, human
# Text: as §1, §2
# HEK293T = experiment: MTT cytotoxicity assay, HEK293T (non-cancer); assay type: cell-based, human
# Text: as §1, §2
# MCF-7 cells [1] = experiment: Cell localization by fluorescence microscopy; assay type: cell-based, human; settings: 10 µM, 30 min, MCF-7, DAPI filter
# Description: We further examined the intracellular distribution of the compound 12b in MCF-7 cells, based on its fluorescence properties. Therefore, we incubated MCF-7 cells for 30 min with the tested compound 12b and analyzed its localization by fluorescence microscopy (Figure 3). No autofluorescence was detected by examining untreated cells under typical imaging conditions.
# The MCF-7 cells were seeded on round microscopic coverslips placed in 24-well-plates (5 × 10^4 cells per well) and grown at 37 °C and 5% CO2 for 24 h in DMEM supplemented with FBS, penicillin, and streptomycin, as described above. Cells were then incubated with compound 12b (10 µM) for 30 min. Afterward, the medium was discharged, coverslips rinsed twice with PBS, placed on the microscopic slides, and immediately analyzed. The uptake and intracellular distribution of the tested derivative were analyzed under a fluorescence microscope (Olympus BX51) at 400 × magnification, using a DAPI filter. Images were captured with an Olympus DP70 Digital Camera.
# MCF-7 cells [2] = experiment: Cell cycle analysis by flow cytometry (PI); assay type: cell-based, human; settings: 12b 10 µM, harmine 20 µM
# Description: To gain further insight into the potential mechanism of activity of 12b, and to examine whether and how the cell growth inhibition was associated with cell cycle regulation, we assessed its influence on the cell cycle of MCF-7 cells, 24 and 48 h after the treatment and compared it with the influence of the reference compound harmine (Figure 4).
# MCF-7 cells were seeded onto 6-well plates (3 × 10^5 cells per well). After 24 h, 12b was added at 10 µM concentration and harmine at 20 µM concentration. After 24 h or 48 h, the attached cells were trypsinized, combined with floating cells, washed with phosphate buffer saline (PBS), fixed with 70% ethanol, and stored at −20 °C. Immediately before analysis, the cells were washed with PBS and stained with 50 μg/mL of propidium iodide (PI) with the addition of 0.1 μg/μL of RNAse A. The stained cells were then analyzed by BD FACScalibur flow cytometer (20,000 counts were measured). The percentage of cells in each cell cycle phase was determined using FlowJo software (TreeStar Inc., USA). The tests were performed in duplicate and repeated in three separate experiments.
# [3] = after 24 h (12b: persisted after 48 h)
compound,measurement,setting,value
"Cc1ccc2oc(=O)cc(-n3cc(COc4ccc5c(c4)[nH]c4c(C)nccc45)nn3)c2c1 [12b, 6-Methyl-4-(4-(((1-methyl-9H-pyrido[3,4-b]indol-7-yl)oxy)methyl)-1H-1,2,3-triazol-1-yl)-2H-chromen-2-one]",IC50,HepG2,19.5 ± 1.5 µM
same,IC50,SW620,20.8 ± 0.4 µM
same,IC50,"HCT116; Homo sapiens, HCT-116, MTT, 72 h, mean ± SD, read-out: IC50 HCT116",4.7 ± 0.6 µM
same,SI (HCT116),HCT116; ratio IC50 HEK293T / IC50 HCT116,>10.6
same,IC50,"MCF-7; Homo sapiens, MCF7, MTT, 72 h, mean ± SD, read-out: IC50 MCF-7",6.9 ± 0.7 µM
same,"activity against MCF-7, fold stronger than 5-FU",MCF-7; compared with 5-FU IC50,3.4 fold
same,"activity against MCF-7, fold higher than harmine",MCF-7; compared with harmine IC50,twofold
same,SI (MCF-7),MCF-7; ratio IC50 HEK293T / IC50 MCF-7,>7.2
same,IC50,"HEK293T; Homo sapiens, HEK-293T, MTT, 72 h, mean ± SD, non-cancer cell line, read-out: IC50 Hek293T",> 50 µM
same,SIs (selectivity towards cancer cells in comparison to HEK293T),HEK293T; cancer cell line not specified (MCF-7 or HCT116),> 7.2
same,intracellular distribution,MCF-7 cells [1],"predominantly cytoplasmic distribution; also recorded: localized exclusively in the cytoplasm; also recorded: localization within the cytoplasm, but not within the nucleus"
same,accumulation of cells in the subG1 phase (apoptotic cells),"MCF-7 cells [2]; 48 h, data not shown",up to 10%
same,effect on G1 phase of cell cycle,MCF-7 cells [2]; [3],strong G1 arrest
same,effect on percentage of cells in S phase,MCF-7 cells [2]; [3],reduced the percentage of cells in the S phase; also recorded: drastic reduction in the percentage of cells in the S phase
same,melting point,,225.5 to 229.5 °C (dec.)
